Source: patent US9072746B2, “Method for enhancing learning and memory impaired by neurodegenerative disorders and compounds and compositions for effecting the same” (The Board of Trustees of the Leland Stanford Junior …, priority 2010, dated 2015)
Entries after “also recorded” stand apart in the source; their conditions may differ.

What was measured:
Type in all cases: in vivo
[1] = test system: C57Bl/6J mice; test: Contextual fear conditioning memory retrieval (FIG. 10A, B); details: betaxolol 1 mg/kg s.c.
Procedure: In all experiments xamoterol 3 mg/kg, atenolol 3 mg/kg, and betaxolol 1 mg/kg were injected subcutaneously. […] Results are shown as mean+SEM (ns=not significant, *=p<0.05, and **=p<0.01).

[2] = test system: male Ts65Dn mice; test: Exploratory activity in novel environment (Activity Chamber); details: for effect on locomotor activity (total ambulatory distance moved): xamoterol 3 mg/kg s.c.
Procedure: (§1) The Activity Chamber (Med associates Inc., St. Albans, Vt.) was used for the evaluation of general activity, gross locomotor activity, and exploratory behavior. Assessment took place in a square arena, 43.2×43.2 cm, with 3 planes of infrared detectors within a specially designed sound attenuating chamber, 66×55.9×55.9 cm, under dim light. The animal was placed in the center of the testing arena and allowed to move freely for 30 minutes while being tracked by an automated tracking system. Distance moved, velocity, resting time, and vertical count (rearing) were recorded. […] In this part of the study, activity chamber and three cognitive tests, including T-maze spontaneous alternation, contextual fear conditioning (CFC), and novel object recognition were performed. In T-maze spontaneous alternation and contextual fear conditioning, both Ts65Dn and 2N male mice were divided into three treatment groups including normal saline (Vehicle), xamoterol, and betaxolol plus xamoterol groups. In the novel object recognition test, both Ts65Dn and 2N male mice were divided into two treatment groups, normal saline and xamoterol. The T-maze was performed exactly as previously described. […] On the first day (training day), animals were placed in the fear conditioning chamber, and after a 3-minute pre-shock period, they were exposed to 5 shocks (2 s, 0.5 mA,) with inter-trial intervals of 80 seconds and no tone. On the second day, the animals first received xamoterol, xamoterol plus betaxolol, or saline injection, and one hour later, they were placed in the same chamber for 5 minutes. Similar to the previous description of fear conditioning, freezing was defined as the complete lack of motion for a minimum of o.75 second. The Novel Object Recognition task is conducted in an open field arena (40 cm×40 cm). Mice were habituated in the testing room for 1 hour followed by 5 minutes habituation inside the arena without any objects. On 4th day animals were introduced 3 times to arena with 3 identical subjects for 10 minutes with 3 minutes inter trial intervals. On 5th day (24 hours after trainings) one of the objects replaced by a novel one and the time sniffing of each object were used for analysis. For testing the role of β1 adrenergic system, xamoterol and betaxolol (Tocris Bioscience, Ellisville, Mo.) were injected subcutaneously using 10 ml/kg normal saline as vehicle. Xamoterol, (3 mg/kg) was given one hour before testing and betaxolol (1 mg/kg) was given 30 minutes before testing.

[3] = test system: male 2N mice; test: as above
Procedure: as §1

[4] = test system: male Ts65Dn mice; test: T-maze spontaneous alternation; details: for effect on T-maze spontaneous alternation deficit: xamoterol 3 mg/kg s.c.
Text: (§2) The T-maze had 3 equal arms (30 cm length, 10 cm width, and 20 cm height). The start arm and 2 goal arms had guillotine gates. This test was based on the rodents' preference to experience a new arm of the T-maze instead of a familiar one ([…], 1998). In each trial, the mouse was placed in the start arm. The gate was then opened and the mouse was able to freely explore the arms. As soon as the mouse entered one goal arm, the sliding gate of the other goal arm closed. The mouse eventually returned to the start arm and the next trial was started. In the next trial, the mouse may recognize the previously chosen goal arm and choose to explore a new arm rather than revisit the previously visited arm. This trial was repeated 11 times per day for 3 consecutive days, for a total of 33 trials. The maze was cleaned with 50% ethanol between trials to eliminate odor. Percent of alternation (number of turns in each goal arm) was used for analysis. This protocol has been described before by Belichenko et al. (2009) and is modified from a Deacon and Rawlins (2006) protocol (Deacon and Rawlins, 2006; Belichenko et al., 2009). […] In this part of the study, activity chamber and three cognitive tests, including T-maze spontaneous alternation, contextual fear conditioning (CFC), and novel object recognition were performed. In T-maze spontaneous alternation and contextual fear conditioning, both Ts65Dn and 2N male mice were divided into three treatment groups including normal saline (Vehicle), xamoterol, and betaxolol plus xamoterol groups. In the novel object recognition test, both Ts65Dn and 2N male mice were divided into two treatment groups, normal saline and xamoterol. The T-maze was performed exactly as previously described. […] On the first day (training day), animals were placed in the fear conditioning chamber, and after a 3-minute pre-shock period, they were exposed to 5 shocks (2 s, 0.5 mA,) with inter-trial intervals of 80 seconds and no tone. On the second day, the animals first received xamoterol, xamoterol plus betaxolol, or saline injection, and one hour later, they were placed in the same chamber for 5 minutes. Similar to the previous description of fear conditioning, freezing was defined as the complete lack of motion for a minimum of o.75 second. The Novel Object Recognition task is conducted in an open field arena (40 cm×40 cm). Mice were habituated in the testing room for 1 hour followed by 5 minutes habituation inside the arena without any objects. On 4th day animals were introduced 3 times to arena with 3 identical subjects for 10 minutes with 3 minutes inter trial intervals. On 5th day (24 hours after trainings) one of the objects replaced by a novel one and the time sniffing of each object were used for analysis. For testing the role of β1 adrenergic system, xamoterol and betaxolol (Tocris Bioscience, Ellisville, Mo.) were injected subcutaneously using 10 ml/kg normal saline as vehicle. Xamoterol, (3 mg/kg) was given one hour before testing and betaxolol (1 mg/kg) was given 30 minutes before testing.

[5] = test system: male 2N mice; test: T-maze spontaneous alternation; details: xamoterol 3 mg/kg s.c. 1 h, betaxolol 1 mg/kg s.c. 30 min before testing
Text: as §2

[6] = xamoterol 3 mg/kg s.c. one hour before testing

## O=C(NCCNCC(O)COc1ccc(O)cc1)N1CCOCC1 (stereo not drawn) [xamoterol]
[1]
  reversal of betaxolol-induced impairment of memory retrieval: reverse the impairment dose-dependently
[2]
  effect on locomotor activity (total ambulatory distance moved): no significant effect
[2]; [6]
  Total Ambulatory Distance Moved in Activity Chamber (cm), Mean ± SEM: 3878 ± 765 cm
[2]; listed as Xamoterol
  effect on locomotor activity (total ambulatory distance moved): did not show a significant effect
[2]; listed as Xamoterole
  effect on locomotor activity (total ambulatory distance moved): Xamoterole has no effect on activity
[3]; xamoterol 3 mg/kg s.c.
  effect on locomotor activity (total ambulatory distance moved): no significant effect
[3]; [6]
  Total Ambulatory Distance Moved in Activity Chamber (cm), Mean ± SEM: 2554 ± 192 cm
[4]
  effect on T-maze spontaneous alternation deficit: completely rescue; also recorded: rescued
[4]; xamoterol 3 mg/kg s.c. 1 h, betaxolol 1 mg/kg s.c. 30 min before testing
  % of Spontaneous Alternation in T-maze, Mean ± SEM: 60.4 ± 4.5%
[4]; listed as Xamoterol
  effect on T-maze spontaneous alternation deficit: rescued
[4]; listed as Xamoterole
  effect on T-maze spontaneous alternation deficit: Xamoterole can rescue the deficit in
[5]
  % of Spontaneous Alternation in T-maze, Mean ± SEM: 64.4 ± 2.1%
